Series [1] has as its system HCC1937+wild-type BRCA1 cells. In words: MTT assay, caPCNA peptides alone and in combination with cisplatin. The series is classed as cell-based, human. On the procedure: As a genetically matched control, wild-type BRCA1 has been transduced into HCC1937 cells (referred to as HCC1937+wild-type BRCA1). HCC1937+wild-type BRCA1 cells were selected for maintenance of the vector using 1 μg/mL puromycin. All cells in these assays were used at passage numbers <25.
MTT [3-(4,5-dimethylthiazol-2-yl)-2,5-diphenyltetrazolium bromide] assays were conducted with caPCNA peptides at a variety of time points both alone and in combination with a DNA damaging agent e.g., cisplatin in HCC1937 and HCC1937+wild-type BRCA1 cells. […] The color can then be quantified using a simple colorimetric assay. The results are read on a multiwall scanning spectrophotometer (ELISA reader). […]
MTT assays: The efficacy of caPCNA peptides (caPeptides) were tested using the MTT assays: HCC1937 and HCC137+wildtype BRCA1 cells were grown in DMEM 1× (supplemented with 10% fetal bovine serum and 5% penicillin/streptomycin) and were plated at a densities of 5.5×10^3 or 7×10^3, respectively, in 96 well plates (100 μL total volume per well) and allowed to attach overnight in a 37° C. incubator (5% CO2). […] Plates were rocked at room temperature for five minutes to dissolve crystals and transferred to an ELISA plate reader. Absorbance was measured at 550 nm. […]

Series [2] has as its system HCC1937 cells lacking BRCA1. The description is as above. The series is classed as cell-based, human. On the procedure:
Breast cancer cells were obtained from a patient harboring a hereditary mutation in BRCA1, a major component of DNA double strand break repair (HCC1937 cells). HCC1937 is a near-tetraploid cell line from mammary gland whose cells are homozygous for a frameshift mutation in BRCA1. The cell line is available at ATCC.
MTT [3-(4,5-dimethylthiazol-2-yl)-2,5-diphenyltetrazolium bromide] assays were conducted with caPCNA peptides at a variety of time points both alone and in combination with a DNA damaging agent e.g., cisplatin in HCC1937 and HCC1937+wild-type BRCA1 cells. The MTT assay is based on the ability of a mitochondrial dehydrogenase enzyme from viable cells to cleave the tetrazolium rings of the pale yellow MTT dye and form dark blue formazan crystals. These formazan crystals are largely impermeable to cell membranes and thus accumulate within healthy cells. Solubilization of the cells by the addition of a detergent results in the liberation and solubilization of the crystals. The number of proliferating cells is directly proportional to the level of formazan product created. The color can then be quantified using a simple colorimetric assay. The results are read on a multiwall scanning spectrophotometer (ELISA reader). The peptides used in these experiments including caPCNA peptide, Q131A ([…] (SEQ ID NO: 5)), and P129A ([…] (SEQ ID NO: 3)) were ordered and obtained from Anaspec (Fremont, Calif.). ca PCNA peptide was dissolved in sterile 1×PBS solution to create a 1.5 mM stock concentration. caPCNA peptides with alanine substitutions (e.g., P129A (SEQ ID NO: 3) and Q131A (SEQ ID NO: 5)) were dissolved in sterile 1×PBS solution to create 1.0 mM stock solutions.
MTT assays: The efficacy of caPCNA peptides (caPeptides) were tested using the MTT assays: HCC1937 and HCC137+wildtype BRCA1 cells were grown in DMEM 1× (supplemented with 10% fetal bovine serum and 5% penicillin/streptomycin) and were plated at a densities of 5.5×10^3 or 7×10^3, respectively, in 96 well plates (100 μL total volume per well) and allowed to attach overnight in a 37° C. incubator (5% CO2). Then, caPCNA peptide stock solution was diluted to final working concentrations in DMEM 1× (10% fetal bovine serum and 5% penicillin/streptomycin) of 150 μM, 100 μM, 75 μM, 50 and 25 μM. Media was removed from cells and replaced with media containing caPCNA peptide at various concentrations (200 μL total volume per well). Cells were cultured with caPCNA peptide-containing media for 24, 48 or 72 hours. At the appropriate treatment timepoint, 20 μL MTT (5 mg/mL in PBS) reagent was added to each well and plates were incubated for an additional 4 hours. Media/dye solution was then aspirated and 200 μL DMSO was added to each well. Plates were rocked at room temperature for five minutes to dissolve crystals and transferred to an ELISA plate reader. Absorbance was measured at 550 nm. The extent to which caPeptides inhibited cell proliferation was calculated as a percentage of the absorbance in each well containing caPCNA peptide relative to wells containing no caPCNA peptide (negative control) for both HCC1937 and HCC1937+wild-type BRCA1 cells.
Efficacy of P129A (SEQ ID NO: 3) and Q131A (SEQ ID NO: 5) caPCNA peptides: Cells were cultured and plated in 96 well plates as described herein. P129A (SEQ ID NO: 3) or Q131A (SEQ ID NO: 5) stock solution was diluted to final working concentrations in DMEM 1× (10% fetal bovine serum and 5% penicillin/streptomycin) of 100 μM, 75 μM, 50 μM, 25 μM, and 12.5 μM. Media was removed from cells and replaced with media containing P129A (SEQ ID NO: 3) or Q131A (SEQ ID NO: 5) caPCNA peptides at various concentrations (200 μL total volume per well) and cells were cultured with peptide-containing media for 24 hours. After 24 hours, the MTT assay was completed and data analysis was performed as described herein. […]

In series [3] the test system is U937 cells. Put plainly: Cytotoxic effects of R9-linked caPCNA peptides, % cell death by flow cytometry. Particulars: for Effect of alanine substitution on cytotoxic action of the peptide (in words): compared with unsubstituted R9-caPCNA peptide. It is filed as cell-based. On the procedure:
R9 refers to a cell penetrating peptide that includes a polyarginine sequence e.g., nine contiguous arginine residues. Alanine substitutions in the caPCNA peptide affect its cytotoxic action. U937 cells were treated with each alanine substituted peptide and the scrambled peptide and % cell death evaluated by flow cytometry.
Background: In flow cytometry, cells or beads pass a laser one at a time.

Series [4] deals with MCF 10A (non-malignant). Put plainly: Preferential killing of cancer cells by R9-caPeptide. It is filed as cell-based.
The test system of series [5] is MCF 7 (breast cancer). Described as above. It is filed as cell-based.
Series [6] has as its system HCC1937 cells. In words: Clonogenic survival assay after caPCNA peptide treatment. The series is classed as cell-based, human. Particulars: 100 μM peptide for 48 hours, 13 days growth; effect more pronounced than in cells with wild-type BRCA1. On the procedure: (§1) Clonogeizic survival assay: Clonogenic survival after caPCNA peptide treatment: The purpose of this experiment was to determine the effects of high caPCNA peptide treatment (100 μM caPCNA peptide for 48 hours) on ability of cells plated at low density to proliferate and form colonies. HCC1937 and HCC1937+wild-type BRCA1 cells were plated in 6-well plates and allowed to attach overnight at 37° C.
(§2) Then, media was removed and replaced with 100 μM caPCNA peptide in DMEM 1× (10% fetal bovine serum and 5% penicillin/streptomycin). Untreated cells were used as a negative control. Plates were incubated with media containing peptide for 48 hours. Live cells were then collected, counted, plated at low density ([…] cells in 10 cm2 dishes) and allowed to grow in DMEM 1× (20% fetal bovine serum, 5% penicillin/streptomycin) for 13 days. After 13-day incubation, media was removed and plates were washed twice with 1×PBS. Cells were fixed with 70% EtOH for 10 minutes, dried, and stained for 1 hour with 20% Giemsa diluted in MilliQ water. Dye was removed; plates were rinsed, dried overnight and photographed. Images shown are representative of results obtained for treated and untreated HCC1937 and HCC1937+wild-type BRCA1 cells.

The test system of series [7] is HCC1937+wild-type BRCA1 cells. The description is as above. The series is classed as cell-based, human. Particulars: 100 μM peptide for 48 hours, 13 days growth. On the procedure:
as §1, §2

Setting [8] is: HCC1937 and HCC1937+wild-type BRCA1 cells, 24 hours.

This is an account of results in patent publication US20120195978A1, “CAPCNA PEPTIDE THERAPEUTICS FOR CANCER” (Indiana University Research and Technology Corpora, priority 2009, published 2012).

pIC50: −log10 of the molar value. No end group written: not given here.

Broadly, the pIC50 is the negative decadic logarithm of the IC50, by convention in mol/L. Take `N.N.[Cl][Pt][Cl]` [cisplatin, reference compound]: the “Sensitivity of cells to cisplatin (MTT)” value in series [1] (HCC1937+wild-type BRCA1 cells, FIG. 3B) is recorded as “relatively resistant”; in series [2] (HCC1937 cells, FIG. 3A), “relatively resistant”. In addition, the negative logarithm of the IC50 (pIC50) was < 3.70 in series [1] (HCC1937 cells with BRCA1, cisplatin alone, FIG. 4B, read-out: IC50 value for cisplatin alone (growth inhibition)) and ~3.81 in series [2] (HCC1937 cells lacking BRCA1, cisplatin alone, FIG. 4A, read-out: IC50 value for cisplatin alone (growth inhibition)). As to “A1-sub. Peptide: R9-linked caPCNA 126-133 peptide with alanine at position 1, L126 (SEQ ID NO: 59) (RRRRRRRRRAGIPEQEY; R9 linked)”, the “Effect of alanine substitution on cytotoxic action of the peptide (in words)” value in series [3] is “reduced cytotoxic activity”. On the same count and under the same terms, then “A2-sub. Peptide: R9-linked caPCNA 126-133 peptide with alanine at position 2, G127 (SEQ ID NO: 60) (RRRRRRRRRLAIPEQEY; R9 linked)”, with “neutral change”. Same read-out and setting: then “A3-sub. Peptide: R9-linked caPCNA 126-133 peptide with alanine at position 3, I128 (SEQ ID NO: 61) (RRRRRRRRRLGAPEQEY; R9 linked)”, with “decrease in cytotoxic action but not to the levels of aa126 or aa133”; and “A4-sub. Peptide: R9-linked caPCNA 126-133 peptide with alanine at position 4, P129 (SEQ ID NO: 62) (RRRRRRRRRLGIAEQEY; R9 linked)”, with “increase in cytotoxicity”. “A5-sub. Peptide: R9-linked caPCNA 126-133 peptide with alanine at position 5, E130 (SEQ ID NO: 63) (RRRRRRRRRLGIPAQEY; R9 linked)”: in series [3], the “Effect of alanine substitution on cytotoxic action of the peptide (in words)” value is “neutral change”. Still for that read-out and setting: for “A6-sub. Peptide: R9-linked caPCNA 126-133 peptide with alanine at position 6, Q131 (SEQ ID NO: 64) (RRRRRRRRRLGIPEAEY; R9 linked)” the value was “increase in cytotoxicity”; for “A7-sub. Peptide: R9-linked caPCNA 126-133 peptide with alanine at position 7, E132 (SEQ ID NO: 65) (RRRRRRRRRLGIPEQAY; R9 linked)”, “increase in cytotoxicity”; for “A8-sub. Peptide: R9-linked caPCNA 126-133 peptide with alanine at position 8, Y133 (SEQ ID NO: 66) (RRRRRRRRRLGIPEQEA; R9 linked)”, “reduced cytotoxic activity”. Consider LGIAEQEY [Peptide P129A], for which, in series [2] (setting [8]), the “Efficacy in comparison to wild-type peptides (MTT)” value was “enhanced efficacy”. On to LGIPEAEY [Peptide Q131A], for which, in series [2] (setting [8]), the “Efficacy in comparison to wild-type peptides (MTT)” value is listed as “enhanced efficacy” and the “Rank of efficacy among the peptides tested (MTT)” value is “appears to be more effective of these peptides tested”. For the molecule “R9-caPeptide: R9 (nonaarginine)-linked caPCNA peptide of Table 6; exact sequence not printed there (LGIPEQEY; also: linked to nonaarginine (R9), site not given here; UniProt P12004 126-133, looked up, fragment) [Peptide R9-caPeptide]”, the “% Dead Cells” value in series [4] was 18.2%; in series [5], 91.5%. As for “Unsub. Peptide: R9-linked caPCNA 126-133 peptide LGIPEQEY, unsubstituted (SEQ ID NO: 58) (RRRRRRRRRLGIPEQEY; R9 linked)”, the “% cancer cell death” value in series [3] (flow cytometry) worked out at 43 ± 10%.

As for “caPCNA peptide: caPCNA-derived peptide (aa 126-133) obtained from Anaspec; the figure legends call it R9-caPCNA / R9-PCNA peptide (LGIPEQEY; also: R9 (nonaarginine) linked, site not given here; UniProt P12004 126-133, looked up, fragment)”, the Colony formation result in series [6] and in series [7] was “inhibits colony formation” in each case. Also, the “Sensitivity of cells to caPCNA peptides (MTT)” value in series [2] (HCC1937 in comparison to HCC1937+wild-type BRCA1 cells, 24, 48 and 72 hour treatment) was “trend of increased sensitivity”.
